Test results reported in PubChem BioAssay (NCI).
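Growth conditions: 96-well plates. Treatment: test compound, 48 hours, 5 concentrations. Analysis: linear interpolation between bracketing concentrations; unreached endpoints set to highest concentration. The concentration for 50% growth inhibition is given as GI50. TGI: total growth inhibition.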

Columns and labels:
Experiment in all cases: growth of human tumour cells (NCI), 48 h
[1] = test system: 786-0 renal
[2] = test system: A498 renal
[3] = test system: A549 NSCLC
[4] = test system: ACHN renal
[5] = test system: BT-549 breast
[6] = test system: CAKI-1 renal
[7] = test system: CCRF-CEM leukemia
[8] = test system: COLO 205 colon
[9] = test system: DU-145 prostate
[10] = test system: EKVX NSCLC
[11] = test system: HCC-2998 colon
[12] = test system: HCT-116 colon
[13] = test system: HCT-15 colon
[14] = test system: HL-60(TB) leukemia
[15] = test system: HOP-62 NSCLC
[16] = test system: HOP-92 NSCLC
[17] = test system: HS 578T breast
[18] = test system: HT29 colon
[19] = test system: IGROV1 ovarian
[20] = test system: K-562 leukemia
[21] = test system: KM12 colon
[22] = test system: LOX IMVI melanoma
[23] = test system: M14 melanoma
[24] = test system: MALME-3M melanoma
[25] = test system: MCF7 breast
[26] = test system: MDA-MB-231 breast
[27] = test system: MDA-MB-435
[28] = test system: MOLT-4 leukemia
[29] = test system: NCI-H226 lung
[30] = test system: NCI-H23 lung
[31] = test system: NCI-H460 lung
[32] = test system: NCI-H522 lung
[33] = test system: NCI/ADR-RES ovarian
[34] = test system: OVCAR-3 ovarian
[35] = test system: OVCAR-4 ovarian
[36] = test system: OVCAR-5 ovarian
[37] = test system: OVCAR-8 ovarian
[38] = test system: PC-3 prostate
[39] = test system: RPMI-8226 leukemia
[40] = test system: RXF 393 renal
[41] = test system: SF-268 CNS
[42] = test system: SF-295 CNS
[43] = test system: SF-539 CNS
[44] = test system: SK-MEL-2 melanoma
[45] = test system: SK-MEL-28 melanoma
[46] = test system: SK-MEL-5 melanoma
[47] = test system: SK-OV-3 ovarian
[48] = test system: SN12C renal
[49] = test system: SNB-19 CNS
[50] = test system: SNB-75 CNS
[51] = test system: SW-620 colon
[52] = test system: T-47D breast
[53] = test system: TK-10 renal
[54] = test system: U251 CNS
[55] = test system: UACC-257 melanoma
[56] = test system: UACC-62 melanoma
[57] = test system: UO-31 renal

Work on `O=C(c1ccccc1)c1nc2ccc(C(F)(F)F)cc2[n+]([O-])c1C(F)(F)F` yielded a GI50 [1] of 48 µM, a TGI [1] greater than 100 µM and a GI50 [2] of 13.2 µM. It also gave a TGI [2] of 45.2 µM, a GI50 [3] of 26 µM and a TGI [3] greater than 100 µM. It also gave a GI50 [4] of 39.3 µM, a TGI [4] greater than 100 µM and a GI50 [5] of 31.5 µM. The TGI [5] was greater than 100 µM, the GI50 [6] was 30.4 µM and the TGI [6] was greater than 100 µM. It also gave a GI50 [7] of 27 µM, a TGI [7] greater than 100 µM and a GI50 [8] of 26.8 µM. The TGI [8] was greater than 100 µM, the GI50 [9] was 71.9 µM and the TGI [9] was greater than 100 µM. For the same molecule, the GI50 [10] was 21.1 µM, the TGI [10] was greater than 100 µM and the GI50 [11] was 30.1 µM. For the same molecule, the TGI [11] was greater than 100 µM, the GI50 [12] was 31.3 µM and the TGI [12] was greater than 100 µM. It also gave a GI50 [13] of 35.1 µM, a TGI [13] greater than 100 µM and a GI50 [14] of 19 µM. The TGI [14] was 52.5 µM, the GI50 [15] was 59.6 µM and the TGI [15] was greater than 100 µM. It also gave a GI50 [16] of 15.1 µM, a TGI [16] of 78.5 µM and a GI50 [17] of 52.6 µM. The TGI [17] was greater than 100 µM, the GI50 [18] was 48.6 µM and the TGI [18] was greater than 100 µM. It also gave a GI50 [19] of 16.4 µM, a TGI [19] of 52.2 µM and a GI50 [20] of 18.2 µM. It also gave a TGI [20] greater than 100 µM, a GI50 [21] of 37.3 µM and a TGI [21] greater than 100 µM. The GI50 [22] was 33.6 µM, the TGI [22] was greater than 100 µM and the GI50 [23] was 34.5 µM. For the same molecule, the TGI [23] was greater than 100 µM, the GI50 [24] was 47.6 µM and the TGI [24] was greater than 100 µM. The GI50 [25] was 36 µM, the TGI [25] was greater than 100 µM and the GI50 [26] was 45.1 µM. The TGI [26] was greater than 100 µM, the GI50 [27] was 43.8 µM and the TGI [27] was greater than 100 µM. The GI50 [28] was 23 µM, the TGI [28] was 73.7 µM and the GI50 [29] was 59 µM. The TGI [29] was greater than 100 µM, the GI50 [30] was 29.1 µM and the TGI [30] was greater than 100 µM. For the same molecule, the GI50 [31] was 23.5 µM, the TGI [31] was greater than 100 µM and the GI50 [32] was 24.7 µM. The TGI [32] was 79 µM, the GI50 [33] was 27 µM and the TGI [33] was greater than 100 µM. It also gave a GI50 [34] of 24.2 µM, a TGI [34] greater than 100 µM and a GI50 [35] of 22.4 µM. For the same molecule, the TGI [35] was greater than 100 µM, the GI50 [36] was 34.6 µM and the TGI [36] was greater than 100 µM. For the same molecule, the GI50 [37] was 38.7 µM, the TGI [37] was greater than 100 µM and the GI50 [38] was 24.5 µM. The TGI [38] was greater than 100 µM, the GI50 [39] was 16.4 µM and the TGI [39] was greater than 100 µM. For the same molecule, the GI50 [40] was 31.8 µM, the TGI [40] was greater than 100 µM and the GI50 [41] was 39.9 µM. The TGI [41] was greater than 100 µM, the GI50 [42] was 19.7 µM and the TGI [42] was greater than 100 µM. For the same molecule, the GI50 [43] was 51.1 µM, the TGI [43] was greater than 100 µM and the GI50 [44] was 27.5 µM. For the same molecule, the TGI [44] was greater than 100 µM, the GI50 [45] was 58.8 µM and the TGI [45] was greater than 100 µM. It also gave a GI50 [46] of 17.5 µM, a TGI [46] of 48 µM and a GI50 [47] of 27.4 µM. The TGI [47] was greater than 100 µM, the GI50 [48] was 54 µM and the TGI [48] was greater than 100 µM. It also gave a GI50 [49] of 71.5 µM, a TGI [49] greater than 100 µM and a GI50 [50] of 37.1 µM. The TGI [50] was greater than 100 µM, the GI50 [51] was 47.5 µM and the TGI [51] was greater than 100 µM. It also gave a GI50 [52] of 20.4 µM, a TGI [52] greater than 100 µM and a GI50 [53] of 37.5 µM. For the same molecule, the TGI [53] was greater than 100 µM, the GI50 [54] was 50.3 µM and the TGI [54] was greater than 100 µM. The GI50 [55] was 22.7 µM, the TGI [55] was greater than 100 µM and the GI50 [56] was 33.7 µM. It also gave a TGI [56] greater than 100 µM, a GI50 [57] of 23.8 µM and a TGI [57] greater than 100 µM.
